Reference: PubChem BioAssay (NCI)
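Where inhibition never reached the appropriate level, the endpoint shown equals the highest concentration tested. Otherwise, values were interpolated linearly from a five-concentration, 48-hour dose response in 96-well plates. GI50: concentration for 50% inhibition of growth. Definition used: TGI = concentration required for complete inhibition of growth.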

How the values were obtained:
Test in all cases: NCI anticancer screen, dose series, 48 h
[1] = system: NCI-H522 lung
[2] = system: NCI-H23 lung
[3] = system: M14 melanoma
[4] = system: OVCAR-3 ovarian
[5] = system: HL-60(TB) leukemia
[6] = system: LOX IMVI melanoma
[7] = system: OVCAR-4 ovarian
[8] = system: U251 CNS
[9] = system: HOP-92 NSCLC
[10] = system: MDA-MB-231 breast
[11] = system: CAKI-1 renal
[12] = system: OVCAR-5 ovarian
[13] = system: SNB-19 CNS
[14] = system: SF-539 CNS
[15] = system: BT-549 breast
[16] = system: TK-10 renal
[17] = system: HS 578T breast
[18] = system: SN12C renal
[19] = system: NCI-H460 lung
[20] = system: SW-620 colon
[21] = system: T-47D breast
[22] = system: SNB-75 CNS
[23] = system: MCF7 breast
[24] = system: SK-MEL-2 melanoma
[25] = system: UACC-62 melanoma
[26] = system: RXF 393 renal
[27] = system: UO-31 renal
[28] = system: HT29 colon
[29] = system: OVCAR-8 ovarian
[30] = system: SK-MEL-5 melanoma
[31] = system: CCRF-CEM leukemia
[32] = system: MDA-MB-435
[33] = system: EKVX NSCLC
[34] = system: A498 renal
[35] = system: K-562 leukemia
[36] = system: KM12 colon
[37] = system: NCI/ADR-RES ovarian
[38] = system: IGROV1 ovarian
[39] = system: MOLT-4 leukemia
[40] = system: HCC-2998 colon
[41] = system: ACHN renal
[42] = system: A549 NSCLC
[43] = system: SK-MEL-28 melanoma
[44] = system: HCT-15 colon
[45] = system: SR leukemia
[46] = system: UACC-257 melanoma
[47] = system: MALME-3M melanoma
[48] = system: NCI-H226 lung
[49] = system: SK-OV-3 ovarian
[50] = system: 786-0 renal
[51] = system: HOP-62 NSCLC
[52] = system: SF-268 CNS
[53] = system: HCT-116 colon
[54] = system: SF-295 CNS
[55] = system: DU-145 prostate
[56] = system: RPMI-8226 leukemia
[57] = system: COLO 205 colon
[58] = system: PC-3 prostate

S=c1cn[nH]c2ccc(Br)cc12
TGI [1]: 91.6 µM | TGI [2]: > 100 µM | TGI [3]: > 100 µM | TGI [4]: > 100 µM | TGI [5]: > 100 µM | TGI [6]: > 100 µM | TGI [7]: > 100 µM | TGI [8]: > 100 µM | TGI [9]: > 100 µM | TGI [10]: > 100 µM | TGI [11]: > 100 µM | TGI [12]: > 100 µM | TGI [13]: > 100 µM | TGI [14]: > 100 µM | TGI [15]: > 100 µM | TGI [16]: > 100 µM | TGI [17]: > 100 µM | TGI [18]: > 100 µM | TGI [19]: > 100 µM | TGI [20]: > 100 µM | TGI [21]: > 100 µM | TGI [22]: > 100 µM | TGI [23]: > 100 µM | TGI [24]: 71.3 µM | TGI [25]: > 100 µM | TGI [26]: 70.7 µM | TGI [27]: > 100 µM | TGI [28]: > 100 µM | TGI [29]: > 100 µM | TGI [30]: > 100 µM | TGI [31]: > 100 µM | TGI [32]: > 100 µM | TGI [33]: 75.3 µM | TGI [34]: > 100 µM | TGI [35]: > 100 µM | TGI [36]: > 100 µM | TGI [37]: > 100 µM | TGI [38]: > 100 µM | TGI [39]: > 100 µM | TGI [40]: > 100 µM | TGI [41]: > 100 µM | TGI [42]: > 100 µM | TGI [43]: > 100 µM | TGI [44]: > 100 µM | TGI [45]: > 100 µM | TGI [46]: > 100 µM | TGI [47]: 79 µM | TGI [48]: > 100 µM | TGI [49]: > 100 µM | TGI [50]: > 100 µM | TGI [51]: > 100 µM | TGI [52]: > 100 µM | TGI [53]: > 100 µM | TGI [54]: > 100 µM | TGI [55]: > 100 µM | TGI [56]: > 100 µM | TGI [57]: > 100 µM

Fc1ccc(C2(CCCN3CCc4[nH]c5cc(F)ccc5c4C3)OCCO2)cc1
TGI [2]: 31.7 µM | TGI [3]: 7.15 µM | TGI [5]: 25.7 µM | TGI [6]: 25.4 µM | TGI [7]: 26.7 µM | TGI [8]: 28.1 µM | TGI [9]: 10.2 µM | TGI [10]: 35 µM | TGI [12]: 20.5 µM | TGI [13]: 23.3 µM | TGI [14]: 25.5 µM | TGI [16]: 28.1 µM | TGI [17]: 17.4 µM | TGI [18]: 31.6 µM | TGI [19]: 24.1 µM | TGI [20]: 27.7 µM | TGI [21]: 30.4 µM | TGI [22]: 25.1 µM | TGI [23]: 25.3 µM | TGI [25]: 26.7 µM | TGI [26]: 26.7 µM | TGI [27]: 10.8 µM | TGI [28]: 15 µM | TGI [29]: 33.9 µM | TGI [30]: 23.5 µM | TGI [31]: 31.4 µM | TGI [32]: 26.5 µM | TGI [33]: 29.1 µM | TGI [34]: 28.9 µM | TGI [35]: 18.3 µM | TGI [36]: 29.8 µM | TGI [37]: > 100 µM | TGI [38]: 35.4 µM | TGI [39]: 21.9 µM | TGI [40]: 4.21 µM | TGI [41]: 23.5 µM | TGI [42]: 29 µM | TGI [43]: 25.6 µM | TGI [44]: 31 µM | TGI [45]: 22 µM | TGI [46]: 16.5 µM | TGI [47]: 25.9 µM | TGI [48]: 38.6 µM | TGI [49]: 26.7 µM | TGI [50]: 27.1 µM | TGI [51]: 25.7 µM | TGI [52]: 30.9 µM | TGI [53]: 24 µM | TGI [54]: 27.4 µM | TGI [55]: 28 µM | TGI [56]: 28.1 µM | TGI [57]: 24.1 µM

Cc1ccccc1NC(=O)N/C(N)=N/c1nc2ccccc2s1
GI50 [1]: 0.0427 µM | TGI [1]: > 100 µM | GI50 [2]: 0.209 µM | TGI [2]: > 100 µM | GI50 [3]: 0.0348 µM | TGI [3]: 1.41 µM | GI50 [4]: 0.0358 µM | TGI [4]: 0.267 µM | GI50 [5]: 0.0285 µM | TGI [5]: 0.15 µM | GI50 [6]: 0.0759 µM | TGI [6]: > 100 µM | GI50 [7]: 0.667 µM | TGI [7]: > 100 µM | GI50 [8]: 0.0547 µM | TGI [8]: > 100 µM | TGI [9]: > 100 µM | GI50 [10]: 0.892 µM | TGI [10]: > 100 µM | GI50 [11]: 0.0499 µM | TGI [11]: > 100 µM | GI50 [12]: 0.488 µM | TGI [12]: > 100 µM | GI50 [13]: 0.104 µM | TGI [13]: > 100 µM | GI50 [14]: 0.041 µM | TGI [14]: 0.725 µM | GI50 [15]: 0.128 µM | GI50 [16]: 3.78 µM | TGI [16]: > 100 µM | GI50 [17]: 0.0494 µM | TGI [17]: > 100 µM | GI50 [18]: 0.0853 µM | TGI [18]: > 100 µM | GI50 [19]: 0.113 µM | TGI [19]: > 100 µM | GI50 [20]: 0.0427 µM | TGI [20]: > 100 µM | GI50 [22]: < 0.0165 µM | TGI [22]: 0.446 µM | GI50 [23]: 0.0359 µM | TGI [23]: > 100 µM | GI50 [24]: > 100 µM | TGI [24]: > 100 µM | GI50 [25]: 0.0425 µM | TGI [25]: > 100 µM | GI50 [26]: 0.03 µM | TGI [26]: 0.464 µM | GI50 [27]: 1.3 µM | TGI [27]: > 100 µM | GI50 [28]: 0.039 µM | TGI [28]: > 100 µM | GI50 [29]: 0.0979 µM | TGI [29]: > 43.2 µM | GI50 [58]: 0.059 µM | TGI [58]: > 100 µM | GI50 [30]: 0.065 µM | TGI [30]: 2.07 µM | GI50 [31]: 0.0402 µM | TGI [31]: > 100 µM | GI50 [32]: 0.0208 µM | TGI [32]: 0.0553 µM | TGI [33]: > 100 µM | GI50 [34]: 0.0261 µM | TGI [34]: 0.142 µM | GI50 [35]: 0.0327 µM | TGI [35]: > 100 µM | GI50 [36]: 0.0399 µM | TGI [36]: > 100 µM | GI50 [37]: 0.0372 µM | TGI [37]: 5.84 µM | GI50 [38]: 0.0796 µM | TGI [38]: > 100 µM | GI50 [39]: 0.0569 µM | TGI [39]: > 100 µM | GI50 [40]: 0.145 µM | TGI [40]: > 100 µM | GI50 [41]: 0.0729 µM | TGI [41]: > 100 µM | GI50 [42]: 0.0871 µM | TGI [42]: > 100 µM | GI50 [43]: 3.37 µM | TGI [43]: > 100 µM | GI50 [44]: 0.0434 µM | TGI [44]: > 100 µM | GI50 [45]: 0.0392 µM | TGI [45]: > 100 µM | GI50 [46]: > 100 µM | TGI [46]: > 100 µM | GI50 [47]: 0.0693 µM | TGI [47]: > 100 µM | GI50 [48]: 0.589 µM | TGI [48]: > 100 µM | GI50 [49]: 0.416 µM | TGI [49]: > 100 µM | GI50 [50]: 0.0646 µM | TGI [50]: > 100 µM | GI50 [51]: 0.11 µM | TGI [51]: > 100 µM | GI50 [52]: 1.5 µM | TGI [52]: > 100 µM | GI50 [53]: 0.0456 µM | GI50 [54]: 0.0292 µM | TGI [54]: 1.17 µM | GI50 [55]: 0.0833 µM | TGI [55]: > 100 µM | GI50 [56]: 0.0402 µM | TGI [56]: 2.46 µM | GI50 [57]: 0.0514 µM | TGI [57]: 4.28 µM
